According to patent US7476316B2, “Molecularly imprinted polymers (MIPS) for the selective removal of inorganic contaminants from liquids” (priority 2005, dated 2009):

Legend:
[1] = cited from earlier work
[2] = removal of gold-containing cations from water by ligand-based MIP; conditions: ligand used in cationic molecularly imprinted polymer
Text: (§1) General classes of cationic ligands that can be used in the present method include, but are not limited to, cationic oxygen containing heterocyclics, cationic nitrogen containing heterocyclics, cationic sulfur containing heterocyclics, cationic phosphorous containing heterocyclics, ammonium salts, phosphonium salts, acylinium salts, metallocenium salts, amidinium salts, imminium salts, and trityl salts. In one embodiment, the ligand can be 4-vinylbenzyl-N,N-dimethyl-N-decylammonium, 4-vinylbenzyl-N-decyl-N-methylglucammonium, N-methyl vinylpyridinium, or 4-vinylbenzyl-N,N-dimethyl-D-glucammonium.

[3] = removal of arsenate from water by ligand-based MIP; conditions: ligand used in suspension polymerization MIP
Text: as §1

Compound | miscibility with water [1] | removal of arsenate from water [3] | also measured
OCCCCCO [1,5-pentanediol] | completely miscible | – | –
C=Cc1ccc(C[N+](C)(C)CCCCCCCCCC)cc1.[Cl-] [Example 1, N-(4-vinylbenzyl)-N-decyl-N,N-dimethylammonium chloride] | – | good results | removal of gold-containing cations from water [2]: particularly good results
CCCCCO [Example 1-pentanol, 1-pentanol] | – | – | soluble in water ([1]; in water): 2.3 % weight/weight
C=Cc1ccc(C[N+](C)(CCCCCCCCCC)C[C@H](O)[C@@H](O)[C@H](O)[C@H](O)CO)cc1.[I-] (stereo partly drawn) [Example 3, N-(4-Vinylbenzyl)-N-decyl-N-methylglucammonium iodide] | – | good results | –
CCCCC [n-pentane] | completely immiscible | – | –
